From the supplement of paper PMC10307832

Key:
Assay in all cases: relative viability (nuclei count vs DMSO), 5 days (fraction); higher = more cells survive
Pemetrexed + Navitoclax = compound: Nc1nc2[nH]cc(CCc3ccc(C(=O)N[C@@H](CCC(=O)O)C(=O)O)cc3)c2c(=O)[nH]1 [Pemetrexed] + CC1(C)CCC(c2ccc(Cl)cc2)=C(CN2CCN(c3ccc(C(=O)NS(=O)(=O)c4ccc(N[C@H](CCN5CCOCC5)CSc5ccccc5)c(S(=O)(=O)C(F)(F)F)c4)cc3)CC2)C1 [Navitoclax] (partner 0.5 µM)
How it was run: (§1)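 Cells from lung cancer lines were seeded into 1536-well plates and, one day later, dosed by pin tool. Treatments were either a single drug or a fixed dose of an anchor drug with five library-drug doses (not always all listed) in √10 steps. After 5 days, nuclei were stained in a one-step fixation (final 0.05% Triton X-100, 1% formaldehyde, 1 ug/ml Hoechst) and counted on 4× images, and relative viability is the treated-to-vehicle nuclei ratio, as the median of duplicate plates.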

Pemetrexed + Tozasertib = compound: Nc1nc2[nH]cc(CCc3ccc(C(=O)N[C@@H](CCC(=O)O)C(=O)O)cc3)c2c(=O)[nH]1 [Pemetrexed] + Cc1cc(Nc2cc(N3CCN(C)CC3)nc(Sc3ccc(NC(=O)C4CC4)cc3)n2)n[nH]1 [Tozasertib] (partner 0.1 µM)
How it was run: as §1

Idelalisib + Linsitinib = compound: CC[C@H](Nc1ncnc2[nH]cnc12)c1nc2cccc(F)c2c(=O)n1-c1ccccc1 [Idelalisib] + C[C@]1(O)C[C@@H](c2nc(-c3ccc4ccc(-c5ccccc5)nc4c3)c3c(N)nccn32)C1 [Linsitinib] (partner 1 µM)
How it was run: as §1

Idelalisib + Alpelisib = compound: CC[C@H](Nc1ncnc2[nH]cnc12)c1nc2cccc(F)c2c(=O)n1-c1ccccc1 [Idelalisib] + Cc1nc(NC(=O)N2CCC[C@H]2C(N)=O)sc1-c1ccnc(C(C)(C)C(F)(F)F)c1 [Alpelisib] (partner 2 µM)
How it was run: as §1

Row | Cell Line | relative viability (Pemetrexed + Navitoclax; first compound 0.002 µM) | relative viability (Pemetrexed + Navitoclax; first compound 0.006325 µM) | relative viability (Pemetrexed + Navitoclax; first compound 0.02 µM) | relative viability (Pemetrexed + Navitoclax; first compound 0.06325 µM) | relative viability (Pemetrexed + Navitoclax; first compound 0.2 µM) | relative viability (Pemetrexed + Tozasertib; first compound 0.006325 µM) | relative viability (Pemetrexed + Tozasertib; first compound 0.02 µM) | relative viability (Pemetrexed + Tozasertib; first compound 0.06325 µM) | relative viability (Pemetrexed + Tozasertib; first compound 0.2 µM) | relative viability (Idelalisib + Linsitinib; first compound 0.04 µM) | relative viability (Idelalisib + Linsitinib; first compound 0.1265 µM) | relative viability (Idelalisib + Linsitinib; first compound 0.4 µM) | relative viability (Idelalisib + Linsitinib; first compound 1.265 µM) | relative viability (Idelalisib + Linsitinib; first compound 4 µM) | relative viability (Idelalisib + Alpelisib; first compound 0.04 µM) | relative viability (Idelalisib + Alpelisib; first compound 0.1265 µM) | relative viability (Idelalisib + Alpelisib; first compound 0.4 µM) | relative viability (Idelalisib + Alpelisib; first compound 1.265 µM) | relative viability (Idelalisib + Alpelisib; first compound 4 µM) | relative viability (Pemetrexed + Tozasertib; first compound 0.002 µM)
1 | NCI-H1944 | 0.945 | 1.01 | 1.03 | 1.08 | 1.01 | 0.306 | 0.269 | 0.241 | 0.242 | 1.19 | 1.06 | 1.06 | 1.14 | 0.808 | 0.881 | 0.836 | 0.651 | 0.688 | 0.545 | 
2 | A-427 | 0.891 | 0.979 | 0.978 | 1.04 | 0.954 | 0.2 | 0.213 | 0.509 | 0.218 | 1.08 | 0.896 | 1.08 | 1.13 | 1.05 | 1.11 | 1.05 | 0.945 | 1.15 | 1.06 | 0.232
3 | NCI-H520 | 0.963 | 1.08 | 1.25 | 1.11 | 1.08 | 0.475 | 0.447 | 0.412 | 0.45 | 0.98 | 0.935 | 0.856 | 0.894 | 0.648 | 0.862 | 0.878 | 0.64 | 0.769 | 0.349 | 0.42
4 | COR-L 105 | 0.674 | 0.686 | 0.878 | 0.69 | 0.707 | 0.332 | 0.31 | 0.366 | 0.338 | 1.05 | 0.83 | 0.793 | 0.806 | 0.595 | 1.05 | 1.08 | 0.855 | 0.83 | 0.586 | 0.431
5 | NCI-H1755 | 0.94 | 0.918 | 1.03 | 0.992 | 0.898 | 0.571 | 0.619 | 0.615 | 0.458 | 1.01 | 0.959 | 0.947 | 0.907 | 0.786 | 0.611 | 0.9 | 0.827 | 0.784 | 0.735 | 0.575
6 | NCI-H2085 | 1.05 | 1.18 | 1.07 | 1.12 | 1.15 | 0.811 | 0.882 | 0.849 | 0.784 | 0.912 | 1.03 | 0.8 | 0.579 | 0.437 | 1.01 | 0.955 | 0.811 | 0.874 | 0.514 | 0.735
7 | NCI-H2023 | 0.972 | 1.02 | 0.991 | 0.942 | 0.459 | 0.338 | 0.364 | 0.379 | 0.223 | 0.662 | 0.556 | 0.515 | 0.547 | 0.273 | 0.693 | 0.564 | 0.524 | 0.494 | 0.313 | 0.245
8 | HOP-62 | 1.03 | 1.01 | 1.19 | 0.906 | 0.894 | 0.306 | 0.409 | 0.368 | 0.349 | 1.04 | 1.04 |  | 1.07 | 0.884 | 1.19 | 1.09 |  | 0.853 | 1.06 | 0.334
